The target of one assay is T1, cyclooxygenase (Homo sapiens, UniProt P23219).
T1 construct: incubating a test compound with heparinised human blood; endogenous in cells; host or cells: blood cells (platelets) in heparinised human whole blood
Kind of assay: Test b): heparinised human blood challenged with A23187, TxB₂ radioimmunoassay. It counts as cell-based. The conditions noted are these: read-out: IC₅₀ (TxB₂). As to the method:
(§1) As stated previously, the heterocyclic cycloalkanes of the formula I are inhibitors of the enzyme 5-LO. […] This test provides a measure of the intrinsic inhibitory properties against soluble 5-LO in an extracellular environment. • b) An in vitro assay system involving incubating a test compound with heparinised human blood, prior to challenge with the calcium ionophore A23187 and then indirectly measuring the inhibitory effects on 5-LO by assaying the amount of LTB₄ using the specific radioimmunoassay described by Carey and Forder (F. Carey and R.A. Forder, Brit. […] The effects of a test compound on the enzyme cyclooxygenase (which is involved in the alternative metabolic pathway for arachidonic acid and gives rise to prostaglandins, thromboxanes and related metabolites) may be measured at the same time using the specific radioimmunoassay for thromboxane B₂(TxB₂) described by Carey and Forder (see above). […] It permits the selectivity of the inhibitory effect on 5-LO or cyclooxygenase to be assessed. • c) An ex vivo assay system, which is a variation of test b) above, involving administration of a test compound (usually orally as the suspension produced when a solution of the test compound in dimethylsulphoxide is added to carboxymethylcellulose), blood collection, heparinisation, challenge with A23187 and radioimmunoassay of LTB₄ and TxB₂. […]

The next assay relates to 5-LO. Nature of the assay: Test c): ex vivo assay, compound administered, blood collected, A23187 challenge, LTB₄ radioimmunoassay. It counts as in vivo. As to the method:
as §1

This note sets out measurements from patent publication EP0385663B1, “Heterocyclic cycloalkanes as inhibitors of 5-lipoxygenase” (ZENECA LIMITED, priority 1989, dated 1990).

Some results are limits rather than exact numbers.

T1 sequence (P23219 24-599): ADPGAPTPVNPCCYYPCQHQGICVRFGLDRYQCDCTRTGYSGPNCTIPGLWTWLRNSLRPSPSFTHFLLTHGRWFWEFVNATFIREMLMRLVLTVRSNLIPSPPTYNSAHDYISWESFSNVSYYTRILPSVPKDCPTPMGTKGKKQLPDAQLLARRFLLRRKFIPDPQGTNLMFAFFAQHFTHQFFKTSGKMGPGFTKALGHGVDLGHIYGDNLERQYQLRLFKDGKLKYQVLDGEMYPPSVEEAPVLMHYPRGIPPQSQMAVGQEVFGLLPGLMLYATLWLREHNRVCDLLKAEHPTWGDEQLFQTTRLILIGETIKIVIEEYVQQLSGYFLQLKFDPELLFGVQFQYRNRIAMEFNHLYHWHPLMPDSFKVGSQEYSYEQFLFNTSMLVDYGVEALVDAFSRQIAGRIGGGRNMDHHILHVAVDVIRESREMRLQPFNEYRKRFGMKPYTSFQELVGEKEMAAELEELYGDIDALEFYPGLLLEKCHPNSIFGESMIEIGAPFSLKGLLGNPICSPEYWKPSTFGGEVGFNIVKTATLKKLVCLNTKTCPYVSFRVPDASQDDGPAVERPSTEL

As to `CO[C@@H]1CCC[C@]1(OC)c1cccc(OCC#Cc2ccccn2)c1` (relative stereo) [Example 2, trans-1,2-dimethoxy-1-[3-(3-(2-pyridyl)prop-2-yn-1-yloxy)phenyl]cyclopentane], the IC50 on cyclooxygenase is greater than 40 µM. The “oral ED₅₀(LTB₄)” value with 5-LO is less than 100 mg/kg.
